Reference: ChEMBL document CHEMBL4823308, “Optimization of Triarylpyridinone Inhibitors of the Main Protease of SARS-CoV-2 to Low-Nanomolar Antiviral Potency” (ACS Med Chem Lett, 2021)
≈ marks a conversion by molar mass, not a printed value.

Experiments:
[1] = in vitro; details: chlorocebus sabaeus, Vero E6 cells
Description: (§1) Cytotoxicity against African green monkey Vero E6 cells after 72 hrs by MTT assay

[2] = in vitro; details: human, 16HBE14o- cells
Description: (§2) Cytotoxicity against human 16HBE14o- after 72 hrs by MTT assay

[3] = Aqueous solubility of the compound in Britton-Robinson buffer at pH 6.5 after 48 hrs by shake flask method; type: physicochemical
[4] = pampa, pH 7.4, 18 h
Description: (§3) Permeability of compound in PBS at pH 7.4 after 18 hrs by PAMPA

[5] = tested on: Vero C1008; details: chlorocebus sabaeus, vero c1008, 72 h
Description: as §1

[6] = tested on: 16HBE14o-; details: human, 72 h
Description: as §2

[7] = tested on: SARS-CoV-2; details: 16hbe14o-
Description: Antiviral activity against SARS-CoV-2 infected in 16HBE14o- cells assessed as inhibition of viral replication after 1 day by Nano-Glo luciferase assay

[8] = in vitro; details: PAMPA, pH 7.4
Description: as §3

Compound	CC50 at 72 h [2]	solubility thermodynamic at 48 h [3]	permeability [4]	CC50 [5]	further results
CCC(CC)COC(=O)[C@H](C)N[P@](=O)(OC[C@H]1O[C@@](C#N)(c2ccc3c(N)ncnn23)[C@H](O)[C@@H]1O)Oc1ccccc1	41 µM				CC50 at 72 h [1]: 72 µM
CCCOc1cc(Cl)cc(-c2cc(-c3ccccc3C#N)cn(-c3cccnc3)c2=O)c1	20 µM				CC50 at 72 h [1]: 22 µM
N#Cc1ccccc1-c1cc(-c2cc(Cl)cc(OCCC(F)(F)F)c2)c(=O)n(-c2cccnc2)c1	25 µM	25 µg/mL (≈ 50.4 µM)	4 10^-6 cm/s		CC50 at 72 h [1]: 22 µM
N#Cc1ccccc1-c1cc(-c2cc(Cl)cc(OCC3CC3)c2)c(=O)n(-c2cccnc2)c1	> 100 µM	3 µg/mL (≈ 6.61 µM)	4.27 10^-6 cm/s		CC50 at 72 h [1]: > 100 µM
Cn1cc(-c2cc(-c3cc(Cl)c(F)c(OCc4ccccc4Cl)c3)c(=O)n(-c3cccnc3)c2)c(=O)[nH]c1=O	> 32.5 µM	116 µg/mL (≈ 206 µM)		> 32.5 µM	
Cc1ncoc1COc1cc(Cl)cc(-c2cc(-c3c[nH]c(=O)[nH]c3=O)cn(-c3cccnc3)c2=O)c1		168 µg/mL (≈ 333 µM)	0.24 10^-6 cm/s		
Cn1cc(-c2cc(-c3cc(Cl)cc(OCc4scnc4C(F)(F)F)c3)c(=O)n(-c3cccnc3)c2)c(=O)[nH]c1=O	> 100 µM	24.8 µg/mL (≈ 42.2 µM)	1.16 10^-6 cm/s	> 100 µM	
Cc1scnc1COc1cc(Cl)cc(-c2cc(-c3c[nH]c(=O)[nH]c3=O)cn(-c3cccnc3)c2=O)c1				> 100 µM	CC50 [6]: 22 µM
O=c1[nH]cc(-c2cc(-c3cc(Cl)c(F)c(OCc4ccccc4Cl)c3)c(=O)n(-c3cccnc3)c2)c(=O)[nH]1	> 95 µM	21.8 µg/mL (≈ 39.5 µM)	0.73 10^-6 cm/s	> 80 µM	
Cc1ocnc1COc1cc(Cl)cc(-c2cc(-c3ccccc3C#N)cn(-c3cccnc3)c2=O)c1		13.1 µg/mL (≈ 26.5 µM)	3.04 10^-6 cm/s		
Cn1cc(-c2cc(-c3cc(Cl)cc(OCC4CC4)c3)c(=O)n(-c3cccnc3)c2)c(=O)[nH]c1=O	> 100 µM	14.2 µg/mL (≈ 29.8 µM)	3.25 10^-6 cm/s	82 µM	
Cn1cc(-c2cc(-c3cc(Cl)cc(OCc4ocnc4C(F)(F)F)c3)c(=O)n(-c3cccnc3)c2)c(=O)[nH]c1=O		34.5 µg/mL (≈ 60.3 µM)	1.03 10^-6 cm/s		
Cn1cc(-c2cc(-c3cc(Cl)cc(OCCC(F)(F)F)c3)c(=O)n(-c3cccnc3)c2)c(=O)[nH]c1=O	95 µM	57 µg/mL (≈ 110 µM)	2.26 10^-6 cm/s	> 100 µM	
O=c1[nH]cc(-c2cc(-c3cc(Cl)cc(OCc4scnc4C(F)(F)F)c3)c(=O)n(-c3cccnc3)c2)c(=O)[nH]1	> 100 µM			> 100 µM	EC50 [7]: Not Active
O=c1[nH]cc(-c2cc(-c3cc(Cl)cc(OCc4ocnc4C(F)(F)F)c3)c(=O)n(-c3cccnc3)c2)c(=O)[nH]1	> 100 µM		0.57 10^-6 cm/s	> 100 µM	EC50 [7]: Not Active
Cc1ocnc1COc1cc(Cl)cc(-c2cc(-c3c[nH]c(=O)[nH]c3=O)cn(-c3cccnc3)c2=O)c1		7.6 µg/mL (≈ 15.1 µM)			
O=C(N[C@H](CO)[C@H](O)c1ccc([N+](=O)[O-])cc1)C(Cl)Cl [CHLORAMPHENICOL]					Papp at 18 h [8]: 5 ×10⁻⁶ cm/s
Cn1c(=O)c2[nH]cnc2n(C)c1=O.O [THEOPHYLLINE]					Papp at 18 h [8]: 0.3 ×10⁻⁶ cm/s
